Results on two compounds are retold here after patent US20110311661A1, “Plant Extracts and Dermatological Uses Thereof” (priority 2003, published 2011).

In one series the test system is human skin keratinocytes. The series can be described thus: IL-8 release ELISA. The format is cell-based. Conditions: positive control at 2.5 μM; 48 hours. Here is the method:
The amount of Interleukin-8 (IL-8) released after exposure of keratinocytes to a plant extract, as described below, can be used to quantify any possible irritation reaction to the extract.
IL-8 release was evaluated in human skin keratinocytes (Cascade Biologics, Portland, Oreg.) using the Quantikine hIL-8 ELISA kit (R&D Systems, Minneapolis, Minn.). Keratinocytes were first grown in a 96-well plate using the complete M154 (M154+HKGS from Cascade Biologics). This media was also used as control. Phorbol 12-myristate 13-acetate (PMA) (Sigma-Aldrich Canada, Oakville, Ontario) at a concentration of 2.5 μM was used as a positive control. All tested plant extracts and the controls were diluted in complete M154 at a non-cytotoxic concentration (i.e. the concentration that provided 100% viability of keratinocytes as shown in Table 10). Cells were seeded into 96-well plates at a concentration of 8×10^3 cells/well in complete M154 media. Plates were incubated for 48 hours at 37° C. in a humidified 5% CO2 atmosphere. After incubation, the medium was removed and 200 μl of sample was added to the wells (all in duplicate). […]
After incubation, each well was washed four times with wash buffer. […] The plate was then gently mixed and the absorbance read at 450 nm on the Spectrafluor Plus plate reader (Tecan). The reading was taken within 15 minutes following addition of the stop solution. […]

The test system of the next series is human skin fibroblasts. The series can be described thus: Inhibition of dermal contraction, fibroblast-populated collagen I gel. Conditions: positive control at 50 μM; collagen gels up to 7 days. The format is cell-based.

Protocol for human skin fibroblasts: The skin model comprises human skin fibroblasts imbedded in a collagen I matrix and provides an in vitro representation of dermal contraction resulting from tractional forces generated by fibroblasts.
The ability of exemplary plant extracts to inhibit dermal contraction was evaluated on human skin fibroblasts (Cascade Biologics, Portland, Oreg.). The cells were imbedded in a collagen I matrix to create a derm-like environment. Fibroblasts were grown in complete M106 to 80% confluence. Free-floating fibroblast-populated collagen gels were prepared in 24-well plates. […] The mix was kept on ice until distribution. The derm-like gels were allowed to polymerize for 1 hour at 37° C. in a humidified 5% CO2 atmosphere. After incubation, the gels were detached from the wells. […] FBS at a final concentration of 10% was added to each well. The plate was incubated for a maximum of 7 days at 37° C. in a humidified 5% CO2 atmosphere. All assays were performed in duplicate. Contraction was measured beginning at day 3. Contracting gels were digitally photographed and the gel areas were calculated using ImagePro software.

Consider `CCCCCCCCCCCCCC(=O)O[C@@H]1[C@@H](C)[C@@]2(O)[C@@H](C=C(CO)C[C@]3(O)C(=O)C(C)=C[C@@H]23)[C@@H]2C(C)(C)[C@]12OC(C)=O` [PMA, Phorbol 12-myristate 13-acetate], for which, in the series with human skin keratinocytes, the IL-8 release entry was “highest level of IL-8 release”. For the compound `CNC(=O)[C@H](Cc1c[nH]c2ccccc12)NC(=O)[C@@H](CC(=O)NO)CC(C)C` [GM6001], the inhibition of contraction result in the series with human skin fibroblasts is “limited, but not complete, inhibition of contraction”.
